Test results taken from patent US12662473B2, “Inhibitors for programmed cell necrosis and preparation method therefor and use thereof” (SHANGHAI INSTITUTE OF ORGANIC CHEMISTRY, CHINESE ACADEMY OF …, priority 2019, dated 2026).
Read-outs that look alike come from different tables or passages of the source.

Tests used:
FADD−/− Jurkat cells = assay: TNF-induced programmed cell necrosis inhibition, Cell Titer-Glo viability; assay type: cell-based; details: Homo sapiens, Jurkat
Excerpt: (§1) The adopted biological assay protocol was: the programmed necroptosis effect of compounds on TNF-induced in FADD (Fas-Associated Death Domain) deficient Jurkat cells and L929 cells.
(§2) In order to verify the inhibitory effect of the compounds of the present invention on programmed cell necrosis at the cellular level, cell types closely related to the RIP1 pathway, namely FADD deficient Jurkat cells (human peripheral blood leukemia T cell line) and L929 cells, were selected. Two different stimulation methods were used: tumor necrosis factor (TNFα) used alone, or TNFα used in combination with mitochondria-derived cysteine aspartate activator (SMAC). Cells viability was calculated by detecting chemiluminescence values, and the biological activity of the compound for inhibiting programmed cell necrosis can be obtained.
(§3) Methods: FADD deficient Jurkat cells: FADD deficient Jurkat cells (human peripheral blood leukemia T cell line) were cultured in vitro. After growing to the logarithmic growth phase, the cells were collected, centrifuged at 1000 rpm for 5 min, the supernatant was discarded, and the cell concentration was adjusted to 2.5×10^5/mL. Cells were seeded into 384-well plates, 40 μl per well. 5 μL of Smac (50 nM) diluted in cell culture medium and 5 μL of each compound were added to the corresponding wells. After pretreatment at 37° C. for 1 h, 5 μL of TNFα (50 ng/mL) diluted in cell culture medium was added to each well of the stimulation group, and 5 μL of the culture medium was added to the control group. The plate was cultured in a cell incubator (37° C., 5% CO2) for 14 h, and 15 μl of Cell Titer-Glo solution was added to each well, then incubated for 30 min at room temperature, and intracellular ATP level was measured by detecting luminescence. The unstimulated DMSO control wells were taken as 100% cell viability. L929 cells: The L929 cells (mouse fibroblasts) were cultured in vitro, digested and diluted to 6.25×10^4/ml, and the cells were seeded into 384-well plates, 40 μl per well. The plate was placed in a cell incubator (37° C., 5% CO2) for 12 hours. 5 μL of Smac (500 nM) diluted in cell culture medium and 5 μL of each compound were added to the corresponding wells. After pretreatment at 37° C. for 1 h, 5 μL of TNFα (500 ng/mL) diluted in cell culture medium was added to each well of the stimulation group, and 5 μL of the culture medium was added to the control group. After the plate was cultured for 14 h in a cell incubator (37° C., 5% CO2), 15 μl of Cell Titer-Glo solution was added to each well. The plate was incubated at room temperature for 30 min, and intracellular ATP level was measured by detecting luminescence. The unstimulated DMSO control wells were taken as 100% cell viability. EC50 values of the compounds were calculated using Prism Graphpad statistical software.
FADD deficient Jurkat cells: FADD deficient Jurkat cells (human peripheral blood leukemia T cell line) were cultured in vitro. After growing to the logarithmic growth phase, the cells were collected, centrifuged at 1000 rpm for 5 min, the supernatant was discarded, and the cell concentration was adjusted to 2.5×10^5/mL. Cells were seeded into 384-well plates, 40 μl per well. 5 μL of Smac (50 nM) diluted in cell culture medium and 5 μL of each compound were added to the corresponding wells. After pretreatment at 37° C. for 1 h, 5 μL of TNFα (50 ng/mL) diluted in cell culture medium was added to each well of the stimulation group, and 5 μL of the culture medium was added to the control group. After the plate was cultured in a cell incubator (37° C., 5% CO2) for 14 h, 15 μl of Cell Titer-Glo solution was added to each well. The mixture was incubated for 30 min at room temperature, and intracellular ATP level was measured by detecting luminescence. The unstimulated DMSO control wells were taken as 100% cell viability.

L929 cells = assay: as above; assay type: cell-based, mouse; details: Mus musculus, read-out: EC50 inhibitory activity on programmed cell necrosis
Excerpt: as §1, §2, §3
L929 cells: The L929 cells (mouse fibroblasts) were cultured in vitro, digested and diluted to 6.25×10^4/ml, and the cells were seeded into 384-well plates, 40 μl per well. The plate was placed in a cell incubator (37° C., 5% CO2) for 12 hours. 5 μL of Smac (500 nM) diluted in cell culture medium and 5 μL of each compound were added to the corresponding wells. After pretreatment at 37° C. for 1 h, 5 μL of TNFα (500 ng/mL) diluted in cell culture medium was added to each well of the stimulation group, and 5 μL of the culture medium was added to the control group. After the plate was cultured for 14 h in a cell incubator (37° C., 5% CO2), and 15 μl of Cell Titer-Glo solution was added to each well, then incubated at room temperature for 30 min, and intracellular ATP level was measured by detecting luminescence. The unstimulated DMSO control wells were taken as 100% cell viability.

[1] = 14 h, TNFa + SM164, read-out: EC50 inhibitory activity on programmed cell necrosis
[2] = TNFa, read-out: EC50 inhibitory activity on programmed cell necrosis
[3] = L929, 14 h, L929 cells (mouse), TNFa + SM164

Row | SMILES | EC50 (FADD−/− Jurkat cells; [1]) [nM] | EC50 (FADD−/− Jurkat cells; [2]) [nM] | EC50 (L929 cells; [3]) [nM] | EC50 (L929 cells; L929, L929 cells (mouse), TNFa) [nM] | EC50 (L929 cells; L929, L929 cells (mouse), TNFa + SM164) [nM]
1 | Cn1nnc([C@@H]2CCCN2C(=O)C(C)(C)Oc2ccc(Cl)cc2)n1 [QY-4-12] | 5890 | 607 | 9530 | 1610 | –
2 | Cc1noc([C@@H]2CCCN2C(=O)C(C)(C)Oc2ccc(C#N)cc2)n1 [QY-2-55] | 2220 | 140 | 233 | 25 | –
3 | Cc1ccc(C2CCCN2C(=O)C(C)(C)C(=O)N2CCNC(=O)C2)cc1 (stereo not shown) [QY-14-31] | > 10000 | > 10000 | > 10000 | > 10000 | –
4 | Cc1nc([C@@H]2CCCN2C(=O)C(C)(C)Oc2ccc(Cl)cc2)sc1C [QY-2-38] | > 10000 | 1700 | > 10000 | 1550 | –
5 | Cc1noc([C@@H]2CCCN2C(=O)C(C)(C)Oc2ccc(-c3ccccc3)cc2)n1 [QY-2-56] | > 10000 | > 10000 | > 10000 | 2120 | –
6 | CC(C)(Oc1ccc(Cl)cc1)C(=O)N1CCC[C@H]1c1ccccc1 [QY-6-83] | 613 | 56 | 323 | 40 | –
7 | COc1ccc(C2CCCN2C(=O)C(C)(C)Oc2ccc(Cl)cc2F)cc1 (stereo not shown) [QY-4-87] | > 10000 | 2380 | > 10000 | 2400 | –
8 | CC(C)(Oc1ccc(Cl)cc1)C(=O)N1CCC[C@H]1c1nnc(N)s1 [QY-2-34] | > 10000 | > 10000 | > 10000 | > 10000 | –
9 | Cc1ccc(C2CCCN2C(=O)C(C)(C)C(=O)N2CCCCC2)cc1 (stereo not shown) [QY-14-44] | > 10000 | > 10000 | > 10000 | > 10000 | –
10 | Cc1noc([C@@H]2CCCN2C(=O)C(C)(C)Oc2ccc(OC(F)(F)F)cc2)n1 [QY-2-76] | 3960 | > 10000 | > 10000 | > 10000 | –
11 | Cc1ccc(C2CCCN2C(=O)C(C)(C)C(=O)N2CCNCC2)cc1 (stereo not shown) [QY-14-33] | > 10000 | > 10000 | > 10000 | > 10000 | –
12 | CC(C)(Oc1ccc(Cl)cc1F)C(=O)N1CCC[C@H]1c1ccc(F)c(F)c1 [QY-6-61] | 379 | 12 | 218 | 75 | –
13 | CC(C)(Oc1ccc(Cl)cc1F)C(=O)N1N=CCC1c1ccc(F)cc1 (stereo not shown) [ZSQ13-57] | 370 | 26 | 112 | 10 | –
14 | CC(C)(Oc1ccc2ncsc2c1)C(=O)N1CCCC1c1ccc(Cl)cc1 (stereo not shown) [QY-11-44] | 1320 | 212 | 677 | 0.0105 | –
15 | Cc1noc([C@@H]2CCCN2C(=O)C(C)(C)Oc2ccc(Cl)cc2F)n1 [QY-3-27, (S)-2-(4-Chloro-2-fluorophenoxy)-2-methyl-1-(2-(3-methyl-1,2,4-oxadiazol-5-yl)pyrrolidin-1-yl)propan-1-one] | 849 | 56 | 792 | 133 | –
16 | CC(C)(Oc1ccc(Cl)cc1)C(=O)N1CCC[C@H]1c1nc(C2CC2)no1 [QY-2-100] | > 10000 | 2240 | > 10000 | 2480 | –
17 | CC(C)(Oc1ccc(Cl)cc1)C(=O)N1CCCC1c1cccc(F)c1 (stereo not shown) [QY-4-39] | 1190 | 274 | 675 | 189 | –

Row | SMILES | EC50 (FADD−/− Jurkat cells; [1]) [nM] | EC50 (FADD−/− Jurkat cells; [2]) [nM] | EC50 (L929 cells; [3]) [nM] | EC50 (L929 cells; L929, L929 cells (mouse), TNFa) [nM] | EC50 (L929 cells; L929, L929 cells (mouse), TNFa + SM164) [nM]
18 | Cc1ccc(C2CC=NN2C(=O)C(C)(C)Oc2ccc(Cl)cc2F)cc1 (stereo not shown) [QY-6-47] | 90 | 5 | 49 | 18 | –
19 | Cc1noc([C@@H]2CCCN2C(=O)C(C)(C)Oc2cccc(Cl)c2)n1 [QY-2-79] | 8920 | 2030 | 1620 | 212 | –
20 | Cc1cc([C@@H]2CCCN2C(=O)C(C)(C)Oc2ccc(Cl)cc2)on1 [QY-2-53] | 1340 | 199 | 1170 | 172 | –
21 | Cc1ccc([C@@H]2CCCN2C(=O)C(C)(C)Oc2ccc(Cl)cc2F)cc1 [QY-5-22, (S)-2-(4-Chloro-2-fluorophenoxy)-2-methyl-1-(2-(p-tolyl)pyrrolidin-1-yl)propan-1-one] | 683 | 98 | – | 62 | 262
22 | COc1ccc(OC(C)(C)C(=O)N2CCC[C@H]2c2nc(C)no2)cc1 [QY-2-54] | > 10000 | > 10000 | > 10000 | 6190 | –
23 | Cc1ccc(C2CCCN2C(=O)C(C)(C)Nc2ncc(Cl)cn2)cc1 (stereo not shown) [QY-13-86] | > 10000 | > 10000 | > 10000 | > 10000 | –
24 | CC(C)(Oc1ccc(Cl)cc1F)C(=O)N1CCCC1c1ccccc1F (stereo not shown) [QY-4-78] | 1100 | 205 | 724 | 156 | –
25 | Cc1ccc(OC(C)(C)C(=O)N2CCC[C@H]2c2nc(C)no2)cc1 [QY-2-77] | > 10000 | 7900 | > 10000 | 4260 | –
26 | CC(C)(C(=O)N1CCCC1c1ccc(Cl)cc1)n1nnc2ccc(Cl)cc21 (stereo not shown) [QY-11-11A] | > 10000 | > 10000 | 0.0772 | 0.0188 | –
27 | Cc1ccc(C2CCCN2C(=O)C(C)(C)C(=O)N2CCC(C)CC2)cc1 (stereo not shown) [QY-14-8] | > 10000 | > 10000 | > 10000 | > 10000 | –
28 | CC(C)(Oc1ccc(Cl)cc1F)C(=O)N1N=CCC1c1ccccc1 (stereo not shown) [ZSQ13-56, 2-(4-Chloro-2-fluorophenoxy)-2-methyl-1-(5-phenyl-4,5-dihydro-1H-pyrazol-1-yl)propan-1-one] | 424 | 49 | 201 | 28 | –
29 | CNC(=O)c1ccc(C2CCCN2C(=O)C(C)(C)Oc2ccc(Cl)cc2F)cc1 (stereo not shown) [QY-5-79] | 1060 | 9230 | > 10000 | > 10000 | –
30 | Cn1nnnc1[C@@H]1CCCN1C(=O)C(C)(C)Oc1ccc(Cl)cc1 [QY-4-11] | 1710 | 61 | > 10000 | > 10000 | –
31 | Cc1noc([C@@H]2CCCN2C(=O)C(C)(C)Oc2ccc(N(C)C)cc2)n1 [QY-2-27] | > 10000 | 9380 | > 10000 | > 10000 | –
32 | Cc1noc([C@@H]2CCCN2C(=O)C(C)(C)Oc2ccc3ccccc3c2)n1 [QY-3-28] | > 10000 | 5550 | 4080 | 878 | –
33 | CCc1ccc(C2CCCN2C(=O)C(C)(C)Oc2ccc(Cl)cc2F)cc1 (stereo not shown) [QY-4-99] | 9200 | 1450 | 9120 | 2510 | –
34 | Cc1ccc(C2CCCN2C(=O)C(C)(C)Oc2ccc(Cl)cc2F)cc1 (stereo not shown) [QY-4-75] | 704 | 83 | 188 | 43 | –
